Test [1] has as its target V-type proton ATPase subunit B (Manduca sexta, UniProt P31401). Kind of test: Inhibition of Manduca sexta V-ATPase V1/Vo holoenzyme activity assessed as inorganic phosphate production pretreated for 5 mins.
Test [2] concerns L929. Kind of test: Antiproliferative activity against mouse L929 cells assessed as growth inhibition after 5 days by MTT assay. Type of test: functional. The following applies: L929, 120 h.
Test [3] in a line: Antiproliferative activity against human KB-3-1 cells after 5 days by MTT assay. In kind it is functional. The following applies: KB 3-1, 120 h.
For test [4], the system named is U-937. Kind of test: Antiproliferative activity against human U937 cells after 5 days by MTT assay. The following applies: U-937, 120 h. In kind it is functional.
The test system of test [5] is SK-OV-3. Kind of test: Antiproliferative activity against human SKOV3 cells after 5 days by MTT assay. The following applies: SK-OV-3, 120 h. Type of test: functional.
Test [6] concerns A-431. Kind of test: Antiproliferative activity against human A431 cells after 5 days by MTT assay. Type of test: functional. The settings on record: A-431, 120 h.
The test system of test [7] is PC-3. Kind of test: Antiproliferative activity against human PC3 cells after 5 days by MTT assay. In kind it is functional. The settings on record: PC-3, 120 h.
In test [8] the test system is MCF7. Kind of test: Antiproliferative activity against human MCF7 cells after 5 days by MTT assay. In kind it is functional. The settings on record: MCF7, 120 h.

Chain of V-type proton ATPase subunit B (P31401 whole entry): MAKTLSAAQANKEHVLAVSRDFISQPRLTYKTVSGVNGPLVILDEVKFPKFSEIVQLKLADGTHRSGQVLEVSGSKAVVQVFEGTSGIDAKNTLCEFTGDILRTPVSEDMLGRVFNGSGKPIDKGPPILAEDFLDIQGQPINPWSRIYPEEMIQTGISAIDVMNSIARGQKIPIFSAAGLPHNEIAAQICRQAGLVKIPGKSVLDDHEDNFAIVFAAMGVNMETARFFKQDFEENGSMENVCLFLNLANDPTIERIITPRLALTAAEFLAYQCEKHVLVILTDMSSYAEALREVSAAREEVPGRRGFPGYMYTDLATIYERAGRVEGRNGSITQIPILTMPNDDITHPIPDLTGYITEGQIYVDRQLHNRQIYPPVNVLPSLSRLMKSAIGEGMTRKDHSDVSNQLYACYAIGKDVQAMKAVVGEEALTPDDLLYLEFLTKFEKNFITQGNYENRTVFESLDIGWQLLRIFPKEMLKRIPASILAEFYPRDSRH

In the case of `CNC(=O)O[C@@H](CC(C)C)c1nc([C@H]2OC(=O)/C(C)=C/C/C(C)=C/[C@@H](O)[C@@H](C)\C=C(C)/C=C(C)\C=C\[C@@H](O)[C@H](C)[C@H](OC)/C(C)=C/C=C/[C@@H]2C)cs1` [ARCHAZOLID A], the IC50 in test [1] worked out at 0.6 nmol/mg. In addition, in test [2], the GI50 was 0.81 nM.
In the same order, the values of `CNC(=O)O[C@@H](CC(C)C)c1nc([C@H]2OC(=O)/C=C/C/C(C)=C/[C@@H](O)[C@@H](C)\C=C(C)/C=C(C)\C=C\[C@@H](O)[C@H](C)[C@H](OC)/C(C)=C/C=C/[C@@H]2C)cs1` [ARCHAZOLID B] are 0.6 nmol/mg and 1.1 nM.
In the same order, the values of `CNC(=O)O[C@@H](CC(C)C)c1nc([C@H]2OC(=O)/C(C)=C/C/C(C)=C/[C@@H](O[C@@H]3O[C@H](CO)[C@@H](O)[C@H](O)[C@H]3O)[C@@H](C)\C=C(C)/C=C(C)\C=C\[C@@H](O)[C@H](C)[C@H](OC)/C(C)=C/C=C/[C@@H]2C)cs1` [ARCHAZOLID C] are 210 nmol/mg and 1600 nM.
In the same order, the values of `CNC(=O)O[C@@H](CC(C)C)c1nc([C@H]2OC(=O)/C(C)=C/C/C(C)=C/[C@@H](O[C@@H]3O[C@H](CO)[C@@H](O)[C@H](O)[C@H]3O)[C@@H](C)\C=C(CO)/C=C(C)\C=C\[C@@H](O)[C@H](C)[C@H](OC)/C(C)=C/C=C/[C@@H]2C)cs1` [ARCHAZOLID D] are 1200 nmol/mg and 330 nM.
With `CNC(=O)O[C@@H](CC(C)C)c1nc([C@H]2OC(=O)/C(C)=C/C/C(C)=C/[C@@H](O)[C@@H](C)\C=C(C)/C=C(C)\C=C\[C@@H](O[C@@H]3O[C@H](CO)[C@@H](O)[C@H](O)[C@H]3O)[C@H](C)[C@H](OC)/C(C)=C/C=C/[C@@H]2C)cs1` [ARCHAZOLID E], the GI50 in test [2] stood at 510 nM.
In the case of `CNC(=O)O[C@@H](CC(C)C)c1nc([C@H]2OC(=O)C/C=C/C(C)=C/[C@@H](O)[C@@H](C)\C=C(C)/C=C(C)\C=C\[C@@H](O)[C@H](C)[C@H](OC)/C(C)=C/C=C/[C@@H]2C)cs1` [ARCHAZOLID F], the IC50 in test [1] stood at 0.7 nmol/mg. Further, the 50% growth inhibitory concentration (GI50) in test [2] came to 0.11 nM; in test [3] it was 0.042 nM; in test [4], 0.038 nM; in test [5] it was 0.043 nM; in test [6] it was 0.111 nM; in test [7], 0.053 nM. The same compound had a 50% growth inhibitory concentration (GI50) in test [8] of 0.131 nM.
